Results on 91 molecules are retold here after a melting point compilation (Tetko et al.; mined from patent text by program, amines drawn as free bases though some values may be those of a salt).

Some results are limits rather than exact numbers.

By melting point is commonly meant the temperature of the solid-liquid transition. As for `NCC1CCN(CCc2ccc(O)cc2)CC1`, the melting point was 166 to 168 °C.

Consider `CC(=O)c1ccc(Nc2cccc(-c3cnc(N)nc3)c2)c([N+](=O)[O-])c1`, for which the melting point is 233 to 236 °C.

As to `O=C(O)c1ccc(OCCCON=Cc2ccc(-c3ccccc3)cc2)cc1NC(=O)c1ccccc1C(F)(F)F`, the melting point lay in the range of 170 to 172 °C.

Consider `COC(=O)CCCCCCc1ncsc1C(=O)O`, for which the melting point was in the range of 113 to 114 °C.

Regarding `CCCCCCCCOc1cc2c(cc1/C(C)=C/c1ccc(C(=O)OC)cc1)C(C)(C)CCCS2(=O)=O`, the melting point lay in the range of 79 to 80 °C.

For `COc1cc(OC)nc(C(=O)NS(=O)(=O)Oc2c(Cl)cccc2Cl)n1`, the melting point was 136 to 139 °C.

`OCCOc1ccc(-c2nc(-c3ccccc3)nc(-c3ccccc3)n2)c(O)c1` yielded a melting point of 195 °C.

Molecule `O=C1CCS(=O)(=O)C1=NO` showed a melting point of 148 °C.

For `CSCC(C)Nc1nccc(-c2ccnc(Cl)c2)n1` (stereo unspecified), the melting point lay in the range of 103 to 106 °C.

For `CC(COc1ccc2ccc(N)nc2n1)CN(C)C` (stereo unspecified), the melting point was 108 °C.

`CCCCN(Cc1ccc(-c2ccccc2S(=O)(=O)NC(=O)c2ccccc2Cl)cc1)C(=O)Oc1ccccc1C(F)(F)F` displayed a melting point of more than 150 °C.

On to `CN1C(=O)CC[C@]2(C)c3ccc(-c4ccc([N+](=O)[O-])s4)cc3CC[C@@H]12`, for which the melting point fell in the range of 147 to 149 °C.

`O=C(NC[C@H]1CN(c2cc(F)c(N3CCC(n4nccn4)CC3)c(F)c2)C(=O)O1)C(F)F` returned a melting point of 254 to 255 °C.

Molecule `COc1ccc(C=O)cc1OCc1nc(-c2ccco2)oc1C` yielded a melting point of 125 to 126 °C.

Molecule `O=c1[nH]c2sc(Br)c(Br)c2[nH]c1=O` returned a melting point of more than 300 °C.

Molecule `COc1ccc(P2(=O)c3ccccc3CN2c2ccccc2)cc1` (stereo unspecified) gave a melting point of 190 to 192 °C.

Take `CC(C)(C)OC(=O)c1ncn2c1[C@@H]1CCN1C(=O)c1c(Br)cccc1-2`: the melting point was 240 to 241 °C.

In the case of `Cc1cnc2n1-c1cc(Cl)c(Cl)cc1N=C(c1ccc(-n3c(C)nc4cnccc43)cc1)C2`, the melting point was in the range of 243 to 246 °C.

The molecule `CCN(CC)CCNC(=O)c1c(I)ccc2c1Nc1ccccc1C2` displayed a melting point of 106 to 108 °C.

`C=CCN1C(=O)C(F)N=C(c2ccccc2)c2cc(Cl)ccc21` (stereo unspecified) returned a melting point of 138 to 140 °C.

On to `O=C1NC(=O)c2ccc(I)cc2/C1=C/NCc1ccc(-n2cccc2)c(O)c1`, for which the melting point fell in the range of 230 to 231 °C.

The molecule `CC(=O)N1CCC(CNc2nc3ccccc3s2)CC1` came in with a melting point of 138 °C.

Regarding `COc1ccc(-c2cc3ccccc3[nH]2)c(O)c1`, the melting point came to 195 °C.

In turn, `CN1C2C=C(c3c[nH]c4ccc(NC(=N)c5cccs5)cc34)CC1CC2` (stereo unspecified) came in with a melting point of 93 to 95 °C.

On to `CCOC(=O)C1=C(C)NC(C)=C(C(=O)OC)C1c1cccc(NC(C)=O)c1` (stereo unspecified), for which the melting point is 197 to 199 °C.

`CCCC(=O)OC1=C(c2ccc(OC)cc2)S(=O)c2ccccc2-n2cccc21` (stereo unspecified): the melting point was in the range of 113 to 115 °C.

Regarding `O=C1N(Cc2c[nH]cn2)CCN1c1cccc(Cl)c1`, the melting point fell in the range of 201 to 203 °C.

In the case of `Cc1ccc(N(c2ccc(-c3ccc(-c4ccc(N(c5ccc(C)cc5)c5ccc6c(c5)CCC6)cc4)cc3)cc2)c2ccc3c(c2)CCC3)cc1`, the melting point lay in the range of 207 to 208 °C.

In the case of `COC(=O)c1c(Nc2ccccc2)nn(C(C)=O)c1C`, the melting point was in the range of 115 to 116 °C.

For `N=C(N)NCCc1ccc(OCCC2Oc3ccccc3N(Cc3cc(Cl)cc(Cl)c3)C2=O)cc1` (stereo unspecified), the melting point is 116 to 117 °C.

`OCC1CCC(N2CCC(=C3c4ccc(F)cc4Sc4ccc(C(F)(F)F)cc43)CC2)CC1` (stereo unspecified) came in with a melting point of 208 to 211 °C.

The molecule `Nc1sc2c(c1C(=O)c1cccs1)CCC2` came in with a melting point of 133 to 134 °C.

For `C[Si](C)(C)c1cccc(Cl)c1C(=O)O`, the melting point is 129 to 131 °C.

For the molecule `O=c1[nH]c(-n2cccn2)nc2ccccc12`, the melting point was 148 to 150 °C.

`O=C(O)[C@@H]1CCc2ccc(O)cc2O1` came in with a melting point of 77 to 79 °C.

For the molecule `O=C1OC2CC3CC(C2)OC1O3`, the melting point fell in the range of 140 to 143 °C.

Regarding `CC(=O)NC[C@H]1CN(c2ccc(C3CCOCC3)cc2)C(=O)O1`, the melting point is 185 to 187 °C.

For `CC(C)(C)c1cn(N=Cc2cccnc2)c(=O)[nH]1`, the melting point is 255 to 256 °C.

For the molecule `O=C(Cl)C=Cc1c(Cl)cccc1Cl`, the melting point fell in the range of 64.5 to 66 °C.

Molecule `CCNC(=O)ON(C(=O)CC)C(=O)NCC` yielded a melting point of 104 to 106 °C.

`Cc1cc(Br)c2c(c1)C(C(=O)O)c1ccccc1CO2` (stereo unspecified) showed a melting point of 196 to 197 °C.

`Cc1cccc(N2CCN([C@@H](Cc3ccc(OCCc4nc(-c5ccccc5)oc4C)cc3)C(=O)O)CC2)c1`: the melting point was 205 to 207 °C.

`CCCCc1oc2ccccc2c1-c1ncc(-c2ccc3cc(OCc4ccc(C(=O)OC)cc4)ccc3c2)o1` had a melting point of 169 to 170 °C.

For the molecule `COc1ccc2cc(C=O)oc2c1`, the melting point lay within 75 to 77 °C.

As to `CCOC(=O)c1cn(C2CC2)c2c(F)c(N3CC[C@H](N)C3)c(F)cc2c1=O`, the melting point is 227 to 228 °C.

`c1ccc(C(Sc2nc3ccccc3[nH]2)(c2ccccc2)c2ccccc2)cc1`: the melting point is 256 °C.

`O=C(CF)Cc1ccc(Cl)cc1Cl` returned a melting point of 48 to 52 °C.

The molecule `CC(=O)OC1CCC2C3CCC4=CC(=O)C(I)CC4(C)C3CCC12C` (stereo unspecified) showed a melting point of 92 °C.

`CC(C)N(CCn1c(CO)nc2c(N)nc3ccccc3c21)C(N)=O` had a melting point of more than 240 °C.

For the molecule `O=C(N(Cc1cccs1)CC1CCCCC1)C12CC3CC(CC(C3)C1)C2`, the melting point fell in the range of 112 to 116 °C.

As for `N#C[C@H](O)c1cccc(Oc2ccccc2)n1`, the melting point was 95 °C.

In turn, `CC(=O)c1c(Br)[nH]c(-c2ccncc2)c1C` showed a melting point of 205 to 206 °C.

`O=C(c1ccc(OCC2CO2)cc1)c1cccc(C(=O)c2ccc(OCC3CO3)cc2)c1` (stereo unspecified) yielded a melting point of 88 to 93 °C.

On to `CCOC(=O)Nc1c(C(=O)O)oc2cc(OCc3ccccc3)ccc12`, for which the melting point turned out to be 198 °C.

`CC1CCC(C(C)C)C(OC(=O)C(=O)Nc2nc(-c3ccccc3)cs2)C1` (stereo unspecified) displayed a melting point of 98 to 100 °C.

As for `CCN(C(=O)OC(C)(C)C)C1CC=C(c2c[nH]c3ccc(N)cc23)CC1` (stereo unspecified), the melting point was 87 to 89 °C.

`CC(C)(C)C(=O)C=CC1C(C(=O)OC(C#N)c2cccc(Oc3ccccc3)c2)C1(C)C` (stereo unspecified) registered a melting point of 89 °C.

As for `CC(=O)O[C@H]1C[C@@H]2CN(C(=O)c3ccc(NC(=O)c4ccccc4-c4ccccc4)cc3)c3ccccc3CN2C1`, the melting point lay within 116 to 118 °C.

As for `c1cc2sccc2cn1`, the melting point is less than 50 °C.

The molecule `CCN(CC)CCCOc1ccc(-c2cc3ccccc3o2)cc1` showed a melting point of 86 to 88 °C.

In the case of `CN1CCCCC1CCc1ccccc1NC(=O)c1ccc(O)cc1` (stereo unspecified), the melting point lay in the range of 178 to 182 °C.

As for `C[C@@H](NC(=O)c1c[nH]c2ncc(-c3nn(C)c4cc(Cl)cc(F)c34)nc12)C(=O)N1CC(C#N)C1`, the melting point fell in the range of 267 to 268 °C.

`CCOC(=O)c1ccc2cc(OC(=S)N(C)C)ccc2c1` had a melting point of 128 to 130 °C.

`Cc1cc(CCC2(C)NC(=O)NC2=O)cc(C(C)(C)C)c1O` (stereo unspecified) showed a melting point of 210 to 211 °C.

`COC(=O)CCC(=O)c1ccc(CCCCNC(C)=O)cc1`: the melting point lay within 94 to 95 °C.

In the case of `COc1ccc(C(=O)NN=Cc2ccc3ccccc3n2)cc1`, the melting point fell in the range of 217 to 218 °C.

As for `Cc1ccc(CC(=O)CCCC(=O)O)c(C)c1`, the melting point was in the range of 75 to 76.5 °C.

With `COc1ccc(C(=O)O)c(-c2ccc(C(F)(F)F)cc2)c1`, the melting point lay within 232 to 234 °C.

Molecule `O=C(O)c1c(O)cccc1Cc1cccs1` showed a melting point of 155 to 158 °C.

`CCCOc1cc(-c2ccc3cc4c(cc3c2)C(C)(C)CCC4(C)C)ccc1C(=O)O`: the melting point was in the range of 137 to 138 °C.

In the case of `OC(CN=CCc1cnc(-c2ccccc2)nc1-c1ccccc1)c1ccccc1` (stereo unspecified), the melting point lay within 140 to 144 °C.

For `COc1cccc(Oc2c(NS(=O)(=O)c3ccc(C(C)(C)C)cc3)nc(C)nc2OCCO)c1`, the melting point was 139 °C.

In turn, `O=C1N(N2CCOCC2)c2ccccc2C1(Cc1ccnc(F)c1)Cc1ccnc(F)c1` had a melting point of 198 to 203 °C.

Molecule `COc1ccc(Nc2ccccc2C(C)=C(Cl)Cl)cc1OC` displayed a melting point of 94 to 96 °C.

For `N#CCCC(=O)c1ccccc1`, the melting point worked out at 69 °C.

`COc1ccc(-c2cc(CN3CCN(C)CC3)c(=O)n(Cc3ccc(F)c(F)c3)n2)cc1F` showed a melting point of 135 to 136 °C.

The molecule `O=C(Cc1ccncc1)NC(Cc1csc2ccccc12)C(=O)CCc1cc(C(F)(F)F)cc(C(F)(F)F)c1` (stereo unspecified) returned a melting point of 184 to 187 °C.

Molecule `CCc1c(-c2ccc(O)cc2)c2cc(C(C)=O)c3cc(O)cc1n32` displayed a melting point of 274 to 275 °C.

Take `O=C1CC(=O)CC2(CCOCC2)C1`: the melting point lay in the range of 162 to 164 °C.

For `CON=C(C)c1nc(-c2cccnc2)[nH]c1C`, the melting point was 203 to 205 °C.

`CCC(NC(=O)NS(=O)(=O)C=Cc1ccccc1)C(=O)O` (stereo unspecified) had a melting point of 150 to 152 °C.

For `CC(C)CC1(CC(C)C)CCc2c(OCc3ccc4ccccc4n3)cccc2C1O` (stereo unspecified), the melting point fell in the range of 144 to 146 °C.

`CCN(CC)c1ccc2cc(-c3nc(-c4ccccc4)cs3)c(=O)oc2c1` registered a melting point of 127 to 130 °C.

Molecule `O=C(SCC(Cc1ccccc1)C(=O)O)c1ccccc1` (stereo unspecified) had a melting point of 99 to 100 °C.

`COCCn1nc(-c2sc(C(=O)NCc3ccccn3)nc2-c2ccccc2)ccc1=O` came in with a melting point of 168 to 170 °C.

`CN1C(=O)C2C3C=CC(CC3)C2(c2ccc(F)c(F)c2)C1=O` (stereo unspecified) had a melting point of 125 to 127 °C.

On to `O=C(O)c1cc2n(c1)CCCC2`, for which the melting point was 131 to 134 °C.

`CNC(=O)Nc1snc(S(C)=O)c1C(N)=O` (stereo unspecified) gave a melting point of more than 355 °C.

Turning to `CC(=O)CCNc1ccc(-c2cc(-c3ccc(C(=O)O)cc3)ccc2OCCCCO)cc1C(C)(C)C`, the melting point is 75 °C.

With `Cc1ccccc1Nc1nc(Cl)nc2c(C)cccc12`, the melting point was 125 to 126 °C.

As to `Cn1cccc1C(=O)C(C#N)C(=O)Nc1c(Cl)cccc1Cl` (stereo unspecified), the melting point was in the range of 196 to 199 °C.
